Reference: PubChem BioAssay (NCI)
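Step 1: Grow cells in 96-well plates. Step 2: Expose to compound for 48 hours at 5 concentrations. Step 3: Interpolate endpoints linearly; if unreached, use highest concentration. GI50 marks 50% less growth. The concentration for full growth arrest is given as TGI.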

How the values were obtained:
Assay in all cases: NCI anticancer screen, dose series, 48 h
[1] = test system: CAKI-1 renal
[2] = test system: HCC-2998 colon
[3] = test system: HCT-116 colon
[4] = test system: M14 melanoma
[5] = test system: MCF7 breast
[6] = test system: NCI-H226 lung
[7] = test system: RPMI-8226 leukemia
[8] = test system: SF-268 CNS
[9] = test system: U251 CNS
[10] = test system: UACC-257 melanoma

Compound	GI50 [1] [µM]	TGI [1] [µM]	GI50 [2] [µM]	TGI [2] [µM]	GI50 [3] [µM]	TGI [3] [µM]	GI50 [4] [µM]	TGI [4] [µM]	GI50 [5] [µM]	TGI [5] [µM]	GI50 [6] [µM]	TGI [6] [µM]	GI50 [7] [µM]	TGI [7] [µM]	GI50 [8] [µM]	TGI [8] [µM]	GI50 [9] [µM]	TGI [9] [µM]	GI50 [10] [µM]	TGI [10] [µM]
COc1ccc(/C(=N/Nc2ccc([N+](=O)[O-])cc2)Sc2cc(Cl)c(C)cc2S(N)(=O)=O)cc1	4.44	9.47	4.29	8.75	2.31	5.48	5.75	15.3	4.84	15.6	3.52	9.63	5.11	13.6	6.66	19.9	7.13	24.3	13	26.4
CCOC(=O)c1c(C)n(Cc2ccc(OC)cc2)c2c1cc(O)c1[nH]c3c(c12)CCCC3	16.4	54.9	2.39	14.5	2.74	12.1	11.8	34.2	4.97	19.8	15.5	32.9	3.78	58	3.47	18.7	2.31	5.89	1.77	9.66
COc1ccc(-n2cc(-c3cc(OC)c(OC)c(OC)c3)[nH]c2=S)cc1OC	> 100	> 100	76.8	> 100	> 100	> 100	> 100	> 100	> 100	> 100	> 100	> 100	> 100	> 100	> 100	> 100	> 100	> 100	> 100	> 100
NCCCCn1c2c(c3ccccc3c1=O)C(=O)c1ccccc1-2	0.0447	0.555	0.484	1.92	0.092	1.76	0.417	1.86	< 0.0359	–	0.107	0.458	0.0887	0.932	0.208	1.86	0.0485	0.824	0.619	1.91
CNC1C(=O)C(C)C(O)(C(CC(C)C(O)/C=C/C=C/CNC(=O)C(C)(C)C(O)\C(C)=C/C=C\C=C\Cc2cnc(C)o2)OC)C12C(=O)OC2COC (centres undefined) (tested in a mixture with another compound)	–	> 100	–	41.7	–	> 49.9	–	27	–	> 84.9	–	4.92	–	42.4	–	42.9	–	> 52.2	–	> 100
COc1ccc(C(=O)/C=C/c2cccnc2Nc2cc(OC)c(OC)c(OC)c2)cc1	2.42	14.7	1.35	2.85	0.54	2.1	2.55	11.9	0.106	11	2.51	8.86	0.885	4.71	3.04	14.8	0.926	7	3.93	15
COc1ccc(-c2nc(-c3nc4ccc(C)cc4[nH]3)c3ccccn23)cc1	2.83	> 100	2.93	7.01	3.26	9.46	3.15	8.6	2.7	> 100	3.88	> 100	1.47	3.93	2.8	> 100	3.27	> 100	2.41	6.17
